Assay results: US9708305B2, “Substituted 1,2,3,4-tetrahydroisoquinoline derivatives for the treatment of hormone-dependent diseases” (UNIVERSITÉ LAVAL, priority 2013, dated 2017)

Legend:
[1] = biological target: T1, STS (Homo sapiens, UniProt P08842); experiment: STS inhibition of libraries 1-EO to 4-EO, homogenate of STS transfected HEK-293 cells; format: biochemical; details: mean ± SEM, triplicate
T1 construct: expressed in transfected cells; host or cells: HEK-293 cells stably transfected with STS (G418 selection), obtained from Dr. Van Luu-The; used as freeze-thaw homogenate
T1 sequence (P08842 22-583): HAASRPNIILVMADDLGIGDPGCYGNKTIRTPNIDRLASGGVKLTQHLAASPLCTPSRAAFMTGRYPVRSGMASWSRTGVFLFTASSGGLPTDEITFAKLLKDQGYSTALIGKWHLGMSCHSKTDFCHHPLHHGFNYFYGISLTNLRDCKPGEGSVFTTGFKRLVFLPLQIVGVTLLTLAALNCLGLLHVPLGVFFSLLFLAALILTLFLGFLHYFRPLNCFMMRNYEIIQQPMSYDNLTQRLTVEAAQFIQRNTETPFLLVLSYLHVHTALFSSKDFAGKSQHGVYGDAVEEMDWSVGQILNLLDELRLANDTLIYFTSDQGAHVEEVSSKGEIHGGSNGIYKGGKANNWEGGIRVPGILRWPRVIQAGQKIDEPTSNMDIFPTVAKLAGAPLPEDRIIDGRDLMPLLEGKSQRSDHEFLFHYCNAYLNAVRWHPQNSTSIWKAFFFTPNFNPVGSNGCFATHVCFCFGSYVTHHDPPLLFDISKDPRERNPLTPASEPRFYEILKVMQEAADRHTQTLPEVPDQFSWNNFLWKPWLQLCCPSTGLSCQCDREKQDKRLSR
Experimental: The enzymatic assay was performed using homogenate of STS transfected HEK-293 cells as the source of enzyme activity. The transformation of [^3H]-E1S into [^3H]-E1 was measured using scintillation counting of labeled E1S and E1 in the aqueous and organic phases, respectively. Newly synthesized sulfamate compounds were tested at two concentrations (0.1 μM and 1 μM). Libraries 1-EO and 2-EO were synthesized using the p- and m-benzamide spacers as 1st level of molecular diversity and the same wide variety of secondary amines as 2nd level of diversity (Table 2), which were chosen in a somewhat random fashion while including a different pattern, format and heteroatom. […] Compounds 1-EO-07, 1-EO-09 and 1-EO-10 represent a starting point for optimization, as they show more than 36% of inhibition when tested at a concentration of 0.1 μM. These compounds have relatively hydrophobic substituents compared to the rest of the library members. […] The average log P value for the rest of the library, excluding these three compounds, is 1.93.
This enzymatic assay was carried out according to a procedure previously described for the transformation of substrate [^3H]-E1S (100 μM) into [^3H]-E1 by homogenated HEK-293 cells over-expressing the enzyme activity.^56,73

[2] = tested on: T-47D cells; experiment: T-47D cell proliferation (estrogenicity / cytotoxicity), MTS; format: cell-based; details: Homo sapiens, T47D, control cells set to 100%, mean±SD
Experimental: The library of phenolic compounds described above was tested on estrogen-sensitive breast cancer T-47D cells.
In Table 1, cell proliferation of control cells is set to 100%. Results are expressed as mean±SD of one experiment in triplicate.
CellTitter 96® Aqueous One Solution Cell Proliferation Assay was used as an indirect colorimetric measurement of cell proliferation according to the manufacturer's instructions. Briefly, after the treatments, 20 μL of MTS solution was added to each well (100 μL) of the plates and incubated at 37° C. for 2 h (Saos-2) or 4 h (T-47D). The absorbance at 490 nm was then measured with a Thermo max microplate reader (Molecular Devices, Sunnyvale, Calif.). The control (culture media+DMSO) is set to 100% of cell proliferation.
The cells were plated in 96-well plates at a density of 3 000 cells/well and allowed to attach for 48 h. After this pre-incubation, the inhibitors and the reference compounds diluted in fresh culture media were added to the wells and replaced every 2 days for 7 days of treatment.

For `CN(C)CCCN(Cc1ccccc1)Cc1cccc(C(=O)N2CCc3ccc(OS(N)(=O)=O)cc3C2)c1` [4-EO-05], the “STS inhibition (%)” value ([1]; 0.1 μM) was 23.8 ± 4.1% and the “STS inhibition (%)” value ([1]; 1 μM) was 26.0 ± 8.5%.
With `CN(CCN1CCCCC1)Cc1cccc(C(=O)N2CCc3ccc(OS(N)(=O)=O)cc3C2)c1` [4-EO-06] the “STS inhibition (%)” value ([1]; 0.1 μM) was 24.5 ± 7.4% and the “STS inhibition (%)” value ([1]; 1 μM) was 30.8 ± 6.4%.
With `CN(CCCN1CCCCC1)Cc1cccc(C(=O)N2CCc3ccc(OS(N)(=O)=O)cc3C2)c1` [4-EO-07] the “STS inhibition (%)” value ([1]; 0.1 μM) was 24.1 ± 0.4% and the “STS inhibition (%)” value ([1]; 1 μM) was 30.6 ± 6.9%.
For `CN(C)CCN(CCN(C)C)Cc1cccc(C(=O)N2CCc3ccc(OS(N)(=O)=O)cc3C2)c1` [4-EO-08], the “STS inhibition (%)” value ([1]; 0.1 μM) was 0.0 ± 0.0% and the “STS inhibition (%)” value ([1]; 1 μM) was 17.1 ± 7.6%.
`CC(C)CCN(CCC(C)C)Cc1cccc(C(=O)N2CCc3ccc(OS(N)(=O)=O)cc3C2)c1` [4-EO-09] was tested, and the “STS inhibition (%)” value ([1]; 0.1 μM) was 32.3 ± 2.9%.
`NS(=O)(=O)Oc1ccc2c(c1)CN(C(=O)c1cccc(CN3CCc4ccccc4C3)c1)CC2` [4-EO-10] was tested, and the “STS inhibition (%)” value ([1]; 0.1 μM) was 24.1 ± 5.6% and the “STS inhibition (%)” value ([1]; 1 μM) was 50.2 ± 1.9%.
`NS(=O)(=O)Oc1ccc2c(c1)CN(C(=O)c1cccc(CN(Cc3ccccc3)Cc3ccco3)c1)CC2` [4-EO-11] was tested, and the “STS inhibition (%)” value ([1]; 0.1 μM) was 27.5 ± 0.9%.
With `CCN(Cc1cccc(Br)c1)Cc1cccc(C(=O)N2CCc3ccc(OS(N)(=O)=O)cc3C2)c1` [4-EO-12] the “STS inhibition (%)” value ([1]; 0.1 μM) was 20.9 ± 7.1% and the “STS inhibition (%)” value ([1]; 1 μM) was 24.9 ± 0.6%.
`CCN(Cc1ccc(Br)cc1)Cc1cccc(C(=O)N2CCc3ccc(OS(N)(=O)=O)cc3C2)c1` [4-EO-13] was tested, and the “STS inhibition (%)” value ([1]; 0.1 μM) was 24.2 ± 4.9%.
For `CCN(Cc1cccc(C(=O)N2CCc3ccc(OS(N)(=O)=O)cc3C2)c1)Cc1ccccn1` [4-EO-14], the “STS inhibition (%)” value ([1]; 0.1 μM) was 6.5 ± 6.9% and the “STS inhibition (%)” value ([1]; 1 μM) was 19.9 ± 12.6%.
In the case of `CCN(Cc1cccnc1)Cc1cccc(C(=O)N2CCc3ccc(OS(N)(=O)=O)cc3C2)c1` [4-EO-15], the “STS inhibition (%)” value ([1]; 0.1 μM) is reported as 14.3 ± 4.7% and the “STS inhibition (%)” value ([1]; 1 μM) is reported as 33.5 ± 5.8%.
With `CCN(Cc1ccncc1)Cc1cccc(C(=O)N2CCc3ccc(OS(N)(=O)=O)cc3C2)c1` [4-EO-16] the “STS inhibition (%)” value ([1]; 0.1 μM) was 33.3 ± 0.0% and the “STS inhibition (%)” value ([1]; 1 μM) was 52.8 ± 1.3%.
`CCN(Cc1ccc(F)cc1)Cc1cccc(C(=O)N2CCc3ccc(OS(N)(=O)=O)cc3C2)c1` [4-EO-17] was tested, and the “STS inhibition (%)” value ([1]; 0.1 μM) was 10.9 ± 7.4% and the “STS inhibition (%)” value ([1]; 1 μM) was 66.5 ± 4.5%.
In the case of `CCN(Cc1ccccc1)Cc1ccc(CN2CCc3ccc(OS(N)(=O)=O)cc3C2)cc1` [Compound 11], the inhibition at 0.1 µM ([1]; 0.1 μM) is reported as 1% and the inhibition at 1 µM ([1]; 1 μM) is reported as 17%.
`CCN(Cc1ccccc1)Cc1ccc(S(=O)(=O)N2CCc3ccc(OS(N)(=O)=O)cc3C2)cc1` [Compound 14] showed an inhibition at 0.1 µM ([1]; 0.1 μM) of 10% and an inhibition at 1 µM ([1]; 1 μM) of 31%.
For `O=C(c1ccc(CN(Cc2ccccn2)Cc2ccccc2OCCCN2CCCCC2)cc1)N1CCc2ccc(O)cc2C1` [Compound 19, (7-hydroxy-3,4-dihydroisoquinolin-2(1H)-yl)(4-{[{2-[3-(piperidin-1-yl)propoxy]benzyl}(pyridin-2-ylmethyl)amino]methyl}phenyl)methanone], the activity at 0.01 µM [2] was 103 ± 6.9%, the activity at 0.1 µM [2] was 99.8 ± 4.2% and the activity at 1 µM [2] was 37.1 ± 4.2%.
With `O=C(c1ccc(CN(Cc2ccc(OCCCN3CCCCC3)cc2)Cc2ccccn2)cc1)N1CCc2ccc(O)cc2C1` [Compound 20, (7-hydroxy-3,4-dihydroisoquinolin-2(1H)-yl)(4-{[{4-[3-(piperidin-1-yl)propoxy]benzyl}(pyridin-2-ylmethyl)amino]methyl}phenyl)methanone] the activity at 0.01 µM [2] was 105.9 ± 1%, the activity at 0.1 µM [2] was 104 ± 4.8% and the activity at 1 µM [2] was 60.7 ± 6.4%.
For `O=C(c1ccc(CN(Cc2ccco2)Cc2ccccc2OCCCN2CCCCC2)cc1)N1CCc2ccc(O)cc2C1` [Compound 21], the activity at 0.01 µM [2] was 96.8 ± 1.2%, the activity at 0.1 µM [2] was 106 ± 5.6% and the activity at 1 µM [2] was 0%.
`O=C(c1ccc(CN(Cc2ccc(OCCCN3CCCCC3)cc2)Cc2ccco2)cc1)N1CCc2ccc(O)cc2C1` [Compound 22, (4-{[(furan-2-ylmethyl){4-[3-(piperidin-1-yl)propoxy]benzyl}amino]methyl}phenyl)(7-hydroxy-3,4-dihydroisoquinolin-2(1H)-yl)methanone] showed an activity at 0.01 µM [2] of 95.6 ± 1.8%, an activity at 0.1 µM [2] of 120 ± 4.8% and an activity at 1 µM [2] of 134 ± 3%.
`O=C(c1ccc(CN(CCCn2ccnc2)Cc2ccccn2)cc1)N1CCc2ccc(O)cc2C1` [Compound 23, (7-hydroxy-3,4-dihydroisoquinolin-2(1H)-yl)[4-({[3-(1H-imidazol-1-yl)propyl](pyridin-2-ylmethyl)amino}methyl)phenyl]methanone] showed an activity at 0.01 µM [2] of 103 ± 2.2%, an activity at 0.1 µM [2] of 113 ± 3.7% and an activity at 1 µM [2] of 39.2 ± 2.9%.
Compound `O=C(c1ccc(CN(CCCn2ccnc2)Cc2ccco2)cc1)N1CCc2ccc(O)cc2C1` [Compound 24, [4-({(furan-2-ylmethyl)[3-(1H-imidazol-1-yl)propyl]amino}methyl)phenyl](7-hydroxy-3,4-dihydroisoquinolin-2(1H)-yl)methanone] has an activity at 0.01 µM [2] of 94.9 ± 1.3%, an activity at 0.1 µM [2] of 98.5 ± 4.5% and an activity at 1 µM [2] of 115 ± 5.9%.
For `O=C(c1ccc(CN(Cc2ccc(Br)cc2)Cc2ccco2)cc1)N1CCc2ccc(O)cc2C1` [Compound 26, (4-{[(4-bromobenzyl)(furan-2-ylmethyl)amino]methyl}phenyl)(7-hydroxy-3,4-dihydroisoquinolin-2(1H)-yl)methanone], the activity at 0.01 µM [2] was 106.3 ± 0.6%, the activity at 0.1 µM [2] was 109 ± 1.2% and the activity at 1 µM [2] was 59.2 ± 3.1%.
Compound `O=C(c1ccc(CN(CCN2CCOCC2)Cc2ccco2)cc1)N1CCc2ccc(O)cc2C1` [Compound 27, [4-({(furan-2-ylmethyl)[2-(morpholin-4-yl)ethyl]amino}methyl)phenyl](7-hydroxy-3,4-dihydroisoquinolin-2(1H)-yl)methanone] has an activity at 0.01 µM [2] of 108 ± 5.5%, an activity at 0.1 µM [2] of 106 ± 1.5% and an activity at 1 µM [2] of 119 ± 9.6%.
`Cc1ccc(CN(Cc2ccc(C(=O)N3CCc4ccc(O)cc4C3)cc2)Cc2ccccn2)s1` [Compound 28, (7-hydroxy-3,4-dihydroisoquinolin-2(1H)-yl)[4-({[(5-methylthiophen-2-yl)methyl](pyridin-2-ylmethyl)amino}methyl)phenyl]methanone] showed an activity at 0.01 µM [2] of 101 ± 3.8%, an activity at 0.1 µM [2] of 105 ± 4.4% and an activity at 1 µM [2] of 78.9 ± 6.8%.
Compound `O=C(c1ccc(CN(Cc2ccc(O)cc2)Cc2ccco2)cc1)N1CCc2ccc(O)cc2C1` [Compound 30, (4-{[(furan-2-ylmethyl)(4-hydroxybenzyl)amino]methyl}phenyl)(7-hydroxy-3,4-dihydroisoquinolin-2(1H)-yl)methanone] has an activity at 0.01 µM [2] of 108 ± 5.5%, an activity at 0.1 µM [2] of 138 ± 1.2% and an activity at 1 µM [2] of 200 ± 4.9%.
